Experimental data as given in ChEMBL document CHEMBL1201862, “PubChem BioAssay data set” (2004).
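Grown in 96-well plates, cells were treated for 48 hours with each compound at five concentrations. Insufficient inhibition: endpoint recorded as highest concentration tested. Here, GI50 denotes the concentration required for 50% inhibition of growth.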 Active and inactive are the calls of the source. Rule as the data show it: active = GI50 up to about 1.1 µM and inactive = higher.

Legend:
Assay in all cases: NCI tumour cell line growth inhibition, 48 h
[1] = tested on: SN12C
[2] = tested on: SR
[3] = tested on: LOX IMVI
[4] = tested on: HCC 2998
[5] = tested on: DMS-273
[6] = tested on: OVCAR-4
[7] = tested on: KM-20L2
[8] = tested on: U-251
[9] = tested on: NCI-H23
[10] = tested on: SK-MEL-5
[11] = tested on: UACC-257
[12] = tested on: DU-145
[13] = tested on: NCI/ADR-RES
[14] = tested on: MCF7
[15] = tested on: PC-3
[16] = tested on: MDA-N
[17] = tested on: MDA-MB-435
[18] = tested on: T47D
[19] = tested on: BT-549
[20] = tested on: Hs-578T

Measured: GI50

CCCCCC(/C=C/c1ncccc1OCCCCCC(=O)O)=N\NC1=NCCN1
inactive: [1] 94.4 µM | [2] 39.4 µM | [3] 74 µM | [4] > 100 µM | [5] 42.9 µM | [6] 78.7 µM | [7] > 100 µM

CC(=O)Nc1ccc(C(=O)NN2C(=O)C(Cl)C2c2cccc([N+](=O)[O-])c2)cc1 (centres undefined)
inactive: [8] > 100 µM | [9] > 100 µM | [2] > 100 µM | [4] > 100 µM | [10] > 100 µM | [11] > 100 µM

CCOC(=O)c1c(-c2cccc(Cl)c2)c(C(=O)OC)c(C)c2sc(C=O)nc12
inactive: [8] 17.7 µM | [12] 17.7 µM | [1] 16.6 µM | [9] 51.9 µM | [3] 14.3 µM | [13] 25.8 µM | [14] 17.8 µM | [6] 20 µM | [15] 16.4 µM | [16] 19.9 µM | [17] 19.6 µM | [18] 14.8 µM | [19] 17.3 µM | [20] 21 µM | [10] 14.3 µM | [11] 31.8 µM
